Results published in patent publication EP4455142A1, “NOVEL INHIBITOR OF QPCTL AND/OR QC” (Scenic Immunology B.V., priority 2023, dated 2024).

Legend:
recombinant QC enzyme = target: T1, recombinant QC enzyme (Homo sapiens, UniProt Q16769); assay: Assay 2 - QC potency, fluorescent enzymatic assay (H-Gln-AMC, coupled pGAPase detection); type: biochemical; settings: 1 hour at 37°C
T1 construct: bacterial expression of residues 33-361 of uniprot ID Q16769, fused to a His tag; His tag (cleaved yes); made in house
T1 sequence (Q16769 33-361): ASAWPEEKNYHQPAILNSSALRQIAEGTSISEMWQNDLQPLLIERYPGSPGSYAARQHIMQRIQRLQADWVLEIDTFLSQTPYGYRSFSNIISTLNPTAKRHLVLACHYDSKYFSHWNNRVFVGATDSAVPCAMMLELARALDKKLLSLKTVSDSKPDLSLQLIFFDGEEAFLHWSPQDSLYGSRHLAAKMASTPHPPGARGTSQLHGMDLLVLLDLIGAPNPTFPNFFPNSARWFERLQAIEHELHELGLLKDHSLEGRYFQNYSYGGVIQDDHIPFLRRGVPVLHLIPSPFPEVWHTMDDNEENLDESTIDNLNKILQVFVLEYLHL
Experimental: After scale-up, expression and lysis, protein was purified by Ni-NTA IMAC, dialysed in the presence of Factor Xa, further purified by Ni-NTA reverse IMAC and finally filtrated for size on a Superdex 200 16/60 column. Final protein was concentrated using a spin concentrator at 10 kDa molecular weight cut-off and formulated in 150 mM NaCl, 50 mM Tris-HCl, 50% Glycerol, pH 8.0.
(§1) Pyroglutamylation was measured by conversion of glutamine-4-amino-7-methylcoumarine (H-Gln-AMC, Bachem) to pyroglutamyl-AMC, which is subsequently a specific substrate for pyroglutamylaminopeptidase (pGAPase, Qiagen), releasing free AMC which can be fluorescently detected. For a typical inhibition assay, 7.5 µL aliquots of threefold dilutions of test compound in 50 mM Tris pH8 buffer were plated in 384-well plates. 15 µL 20 µM h-Gln-AMC (diluted from a 40 mM stock dissolved in 25 mM HEPES using 50 mM Tris-HCl pH 8.0) was added to each well. Finally, 7.5 µL, 3 ng/µL recombinant QC enzyme was added and the reaction mixture was incubated for 1 hour at 37°C. A 5 minute incubation at 98°C was then performed to denature the QC enzyme and stop the reaction.
25 µL of the pyroglutamylation reaction mixture was transferred into an empty plate and to that, 25 µL of the pGAPase enzyme solution was added. Plates were then incubated for 25 minutes at room temperature before fluorescence readings were taken on an Envision2 plate reader with excitation set at 380 nm and emission at 450 nm.
Controls were taken along containing pyroglutamylated-AMC (Bachem, dissolved at 10 mM in DMSO) instead of H-Gln-AMC to control for pGAPase inhibition.
(§2) IC50 values are calculated using non-linear regression analysis with GraphPad Prism software.

human isoQC = target: T2, human isoQC (Homo sapiens, UniProt Q9NXS2); assay: Assay 1 - isoQC potency, fluorescent enzymatic assay (H-Gln-AMC, coupled pGAPase detection); type: biochemical; settings: recombinant isoQC, 1 hour at 37°C
T2 construct: The Golgi luminal, enzymatically active region of human isoQC (S53-L382; see, e.g., Huang et al., 2011); GST (with enterokinase site) (N, cleaved yes); made in house; host or cells: E. coli
T2 sequence (Q9NXS2 53-382): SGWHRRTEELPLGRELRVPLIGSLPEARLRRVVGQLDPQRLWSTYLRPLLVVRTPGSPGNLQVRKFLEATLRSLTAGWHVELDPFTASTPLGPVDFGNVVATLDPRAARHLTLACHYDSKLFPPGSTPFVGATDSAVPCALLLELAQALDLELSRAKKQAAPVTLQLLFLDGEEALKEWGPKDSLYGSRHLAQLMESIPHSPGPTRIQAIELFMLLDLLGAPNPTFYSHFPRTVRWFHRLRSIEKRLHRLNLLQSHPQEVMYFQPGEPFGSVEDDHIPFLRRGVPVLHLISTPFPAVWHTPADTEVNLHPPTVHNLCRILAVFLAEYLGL
Text: The Golgi luminal, enzymatically active region of human isoQC (S53-L382; see, e.g., Huang et al., 2011) was obtained by expression in E. coli of an N-terminally GST Enterokinase and C-terminally 6xHis tagged construct in the pET41(+) vector and subsequent purification using Ni-NTA IMAC. Enterokinase digestion ensued, followed by another Ni-NTA IMAC purification, Superdex75 based size exclusion and finally a spin concentration using a 10 kDa molecular weight cutoff. The final protein is formulated in 50 mM Tris-HCl, 150 mM NaCl, 50% Glycerol, pH 7.8.
as §1, with “in 50mM” for “in 50 mM”, “µM hGln-AMC” for “µM h-Gln-AMC”, “Tris-HCl 25” for “Tris-HCl”, “recombinant isoQC” for “recombinant QC”, “the isoQC” for “the QC”
To detect the amount of pyroglutamyl-AMC formed, a 0.125 U/mL pGAPase enzyme diluted in 50 mM Tris-HCl pH 8.0 containing 10 mM dithiothreitol (DTT) solution was prepared. 25 µL of the pyroglutamylation reaction mixture was transferred into an empty plate and to that, 25 µL of the pGAPase enzyme solution was added. Plates were then incubated for 25 minutes at room temperature before fluorescence readings were taken on an Envision2 plate reader with excitation set at 380 nm and emission at 450 nm. DMSO concentrations during the assay never exceeded 1% and activities were compared to controls containing only the same amount of DMSO and no test compound. Controls were taken along containing pyroglutamylated-AMC (Bachem, dissolved at 10 mM in DMSO) instead of H-Gln-AMC to control for pGAPase inhibition.
as §2

pyroglutamylated CD47 = assay: Assay 3 - cell-based potency assay (pyroglutamylation in live cells, total CD47/pE-CD47 dual staining, FACS); set-up: species or system human; settings: IC50 of CC2C6 signal, KBM7 cells, 72 hours incubation
Experimental: Cells were spun for 4 minutes at 1500 rpm and washed once with PBS / 0.5% BSA. Cells were spun down again and the supernatant was removed and incubated in 100 uL antibody staining solution (PBS / 0.5% BSA / 0.1 µg/mL DAPI (4',6-diamidino-2-phenylindole, ThermoFisher Scientific) and a mixture of 1:500 FITC-conjugated anti-human CD47 clone 2D3, which recognizes total CD47 irrespective of its pyroglutamylation state, and 1:500 Alexa647-conjugated anti-human CD47 clone CC2C6, which specifically detects pyroglutamylated CD47) for 2 hours at 4°C. Next, the cells were spun down and washed twice with 2 x 150 µL PBS / 0.5% BSA to remove unbound antibody. Cells were again spun down and taken up in 300 µL FACS buffer before analysis on a Celesta FACS machine (BD Biosciences).
KBM7 cells (Kotecki et al., 1999) were infected with lentivirus produced by transfecting pSCNC-LentiCRISPR-QPCTL or pSCNC-LentiCRISPR-CD47 into HEK-293T cells according to standard protocols. After 24 hours incubation, cells were selected with puromycin (Invivogen, 1 µg/mL) for 48 hours. Cells were stained for total CD47 and pE-CD47 and QPCTL k.o. cells were sorted out as negative for pE-CD47, and CD47 k.o. cells as negative for total CD47, using a FACSAria III and FACS Diva software (BD Biosciences).
In order to test compounds for their effect on pyroglutamylation in live cells, 25000 KBM7 cells per well were seeded in a 96-well U-bottom plate in 150 µl IMDM / 10% FCS / 1% Pen / Strep medium and a 10-point 2-fold dilution range of test compounds. After 72 hours incubation at 37°C, 5% COz, cells were stained for total CD47 and pE-CD47 and analysed on a BD Celesta using FACS Diva software (BD Biosciences). Cells gated for DAPI negativity were recorded and the median fluorescence intensity (MFI) of each sample was transformed to linearly scale between the MFI's of wildtype and CD47 knockout cells (in case of the 2D3 antibody) and the wildtype and QPCTL knockout cells (in case of the CC2C6 antibody). ICso's were calculated by 3 parameter logistic regression of the CC2C6 signal vs. compound concentration, where the top of the sigmoidal curve was fixed at 1, using R and the drc package (http://www.r-project.org, https://cran.r-project.org/web/packages/drc/index.html).

| SMILES | IC50 (recombinant QC enzyme) | IC50 (human isoQC) | IC50 (pyroglutamylated CD47; Homo sapiens, KBM-7, 72 h) | IC50 (pyroglutamylated CD47) |
| --- | --- | --- | --- | --- |
| O=C1OC[C@H](c2ccc(-c3cnn(C4CC(F)(F)C4)c3)cc2F)N1c1ccc2[nH]cnc2c1 [(16)] | 9.4 nM | 5.1 nM | – | – |
| O=C1OCC(c2cc(F)cc(C(F)(F)F)c2)N1c1ccc2[nH]cnc2c1 (racemic) [(17)-Rac, reference compound] | 1730 nM | 1200 nM | > 50000 nM | – |
| O=C1OC[C@H](c2ccc(-c3cnn(CC(F)F)c3)cc2F)N1c1ccc2[nH]cnc2c1 [(15)] | 8 nM | 2.7 nM | 155 nM | – |
| O=C1OC[C@H](c2ccc(-c3nc(C(F)(F)F)cs3)cc2F)N1c1ccc2[nH]cnc2c1 [(9)] | 36.1 nM | 9 nM | 622 nM | – |
| O=C1OC[C@H](c2ccc(-c3noc(C(F)(F)F)n3)cc2F)N1c1ccc2[nH]cnc2c1 [(10)] | 48.2 nM | 12.6 nM | – | – |
| O=C1OCC(c2ccc(C3CCC(F)(F)CC3)cc2)N1c1ccc2[nH]cnc2c1 (racemic) [(19)-Rac, reference compound] | – | 63.7 nM | 10400 nM | – |
| O=C1OC[C@H](c2ccc(-c3cnn(CF)c3)cc2F)N1c1ccc2[nH]cnc2c1 [(13)] | 11.3 nM | 4 nM | 401 nM | – |
| O=C1OC[C@H](c2ccc(-c3cnn(C(F)(F)F)c3)c(F)c2F)N1c1ccc2[nH]cnc2c1 [(2)] | 38.9 nM | 4 nM | 106 nM | – |
| O=C1OC[C@H](c2ccc(-c3cnn(C4CC4(F)F)c3)cc2F)N1c1ccc2[nH]cnc2c1 (stereo partly drawn) [(14)] | 12.7 nM | 3.6 nM | – | – |
| O=C1OCC(c2ccc(N3CCCC3)cc2)N1c1ccc2[nH]cnc2c1 (single isomer, unassigned) [(18)-ent1, reference compound] | 2530 nM | 1170 nM | – | > 50000 nM |
| O=C1OC[C@H](c2ccc(-c3ccc(C(F)(F)F)s3)cc2F)N1c1ccc2[nH]cnc2c1 [(8)] | 86 nM | 13.4 nM | 526 nM | – |
| O=C1OCC(c2ccc(C3CCC(F)(F)CC3)cc2)N1c1ccc2[nH]cnc2c1 (single isomer, unassigned) [(19)-ent1, reference compound] | – | 1240 nM | – | > 12500 nM |
| O=C1OC[C@H](c2ccc(-c3ccc(C(F)(F)F)o3)cc2F)N1c1ccc2[nH]cnc2c1 [(7)] | 70.1 nM | 10 nM | 503 nM | – |
| O=C1OC[C@H](c2ccc(-c3cnn(C(F)(F)F)n3)cc2F)N1c1ccc2[nH]cnc2c1 [(6)] | 15.1 nM | 3 nM | – | – |
| O=C1OCC(c2cc(F)cc(C(F)(F)F)c2)N1c1ccc2[nH]cnc2c1 (single isomer, unassigned) [(17)-ent1, reference compound] | > 10000 nM | 10900 nM | > 50000 nM | – |
| O=C1OC[C@H](c2ccc(-c3cnn(C(F)F)c3)cc2F)N1c1ccc2[nH]cnc2c1 [(12)] | 7.5 nM | 3.3 nM | 157 nM | – |
| O=C1OCC(c2ccc(N3CCCC3)cc2)N1c1ccc2[nH]cnc2c1 (racemic) [(18)-Rac, reference compound] | 49.1 nM | 48.4 nM | 8510 nM | – |
| O=C1OC[C@H](c2ccc(-c3ccn(C(F)(F)F)n3)cc2F)N1c1ccc2[nH]cnc2c1 [(5)] | 34.7 nM | 7.7 nM | 659 nM | – |
| O=C1OC[C@H](c2ccc(-c3cc(C(F)(F)F)no3)cc2F)N1c1ccc2[nH]cnc2c1 [(11)] | 24.3 nM | 5.2 nM | 252 nM | – |
